Experimental data: patent US8965708B2, “Method for the treatment of acquired lymphedema” (The Board of Trustees of the Leland Stanford Junior …, priority 2006, dated 2015)
“Also recorded” adds a separate entry of the source.

What was measured:
[1] = Mass spectrometry of ketoprofen in tissue following topical administration; format: in vivo, mouse; details: topical preparation delivered daily to mice; mass spectrometry of biopsy
[2] = tested on: CD30 and IgE levels; test: Human study: serum analysis of CD30 and IgE; format: in vivo; details: pre to post treatment
[3] = tested on: patients with lymphedema; test: Human study: volume of fluid lost from affected limb after 90 days ketoprofen; format: in vivo; details: 75 mg orally twice or three times per day for 90 days
Procedure: FIG. 23. […] For the purposes of comparing bilateral results to unilateral results, volume lost in bilateral lymphedema was calculated by determining the total volume lost and dividing by 2.
Biopsies were taken pre- and post-treatment, and clinical responses were reassessed monthly. 44 participants were enrolled (FIG. 22), 38 of which had completed the study at the time the data was collected. Average age of the patient was 57 years+/−14 years (24-85 years of age). The average length of time that the patient had had lymphedema was 10+/−10 years (0.5-40 years). Lymphedema was due to the following: breast cancer (12 patients (27.3%)); cervical cancer (6 patients (13.6%)); uterine cancer (2 patients (4.5%)); ovarian cancer (2 patients (4.5%)); penile cancer (1 patient (2.3%)); Hodgkin's lymphoma (2 patients (4.5%)); trauma (5 patients (11.4%)); infection (3 patients (6.8%)); venous insufficiency (3 patients (6.8%)); May-Thurner syndrome (2 patients (4.5%)); primary lymphedema ([…]); other (2 patients (4.5%)).

[4] = tested on: cytokine levels in tail skin; test: Tissue cytokine assays (Luminex) in tail skin homogenates; format: in vivo, mouse
Procedure: Cytokine levels in tail skin were measured in normal controls and mice with untreated, NSAID-treated, and sTNF-R1-treated lymphedema (n=3 per group) sacrificed on postoperative day 7. The Luminex LabMap200 System was used to measure the levels of 42 cytokines from the supernatant of tissue homogenates. Multiplex cytokine kits were purchased from Panomics (Fremont, Calif.), and the assay was performed according to the manufacturer's recommendation with the following modifications: 25-50 μl of samples, standards, and controls were added in duplicate to 96-well filter plates pre-configured with a panel of anti-cytokine antibodies covalently linked to unique polystyrene beads. The plate was incubated overnight at 4° C. in the dark with shaking at 500 rpm, vacuum aspirated, and washed three times with 140 μl of wash buffer to remove unbound antigen. Biotinylated detection antibody solution (25 μl) was added to each well and incubated for 1 hour with shaking at 500 rpm at room temperature. The plate was incubated with 50 μl of streptavidin-phycoerythrin for 35 minutes and then with 120 μl of reading buffer for 3 minutes at room temperature with shaking. After laser excitation, digital images of the bead array were captured with a CCD camera and analyzed on a computer workstation with BeadView software.

[5] = tested on: tail lymphedema in SKH-1 mice; test: Histology and histomorphometric quantitation of epidermal thickness (Example 4); format: in vivo, mouse; details: for histological changes in mice with lymphedema: hematoxylin/eosin
Procedure: Immediately after sacrifice, 0.5-g sections of tail were harvested for histological analysis and RNA extraction. Sections extended from a point 4 mm proximal to the surgical incision to 8 mm beyond it. The specimens were fixed overnight in 4% paraformaldehyde, embedded in paraffin, cut into 5-μm sections, stained with hematoxylin and eosin (Richard-Allan Scientific, Kalamazoo, Mich.), and examined by light microscopy.
Epidermal thickness was measured serially using digital images of histology slides stained with hematoxylin and eosin. Processing and analysis were performed using Adobe Photoshop CS4 and ImageJ (http://rsbweb.nih.gov/ij) as previously described with modifications (Sanders J E, et al. Comput Methods Programs Biomed. 1999; 59:167-180). Quantitative measurements were imported to Prism 5 software (GraphPad Software Inc., La Jolla, Calif.) for statistical analysis and graphing.

[6] = Log Kow; format: physicochemical
[7] = tested on: patients with lymphedema; test: Human study: participant outcomes following the clinical trial; format: in vivo
[8] = tested on: patients with lymphedema; test: Human study: histology of cutaneous biopsies (Hematoxylin and Eosin, Sirius Red); format: in vivo; details: 90 days / 3 months after start of treatment
From the text: FIG. 24. Tissue architecture before and after ketoprofen treatment. (A) Cutaneous biopsies stained with Hematoxylin and Eosin. (B) Cutaneous biopsies stained with Hoechst. “Normal”: unaffected contralateral limb. “Lymphedema, Pre-Rx”: affected tissue at the start of treatment. “Lymphedema post-Rx”: affected tissue 90 days following treatment.
FIG. 25. […] Fibrotic response (thickening tissue, collagen deposition in dermis and subdermis) is quantified by measuring the mean pixel intensity of Sirius Red uptake. […] In lymphedemous tissue (LY), an increase in fibrotic tissue is observed. Three months after the start of treatment (Rx/NL), the tissue has returned to a healthy state. Y axis is the ratio of paired samples. “NL/NL”: fibrosis in unaffected tissue, normalized to the pixel intensity of Sirius Red uptake in the unaffected tissue. “LY/NL”: fibrosis at the start of treatment, normalized to the pixel intensity of Sirius Red uptake in the unaffected tissue. “Rx/NL”: fibrosis after 3 months treatment, normalized to the pixel intensity of Sirius Red uptake in the unaffected tissue.
Biopsies were taken pre- and post-treatment, and clinical responses were reassessed monthly. 44 participants were enrolled (FIG. 22), 38 of which had completed the study at the time the data was collected. Average age of the patient was 57 years+/−14 years (24-85 years of age). […]

[9] = tested on: TNF-α, MCP-1, VEGF-C, VEGF-D, VEGFR-3, Prox1, LYVE-1 expression; test: Targeted gene expression analysis by quantitative real-time RT-PCR in tail skin; format: in vivo, mouse
Procedure: Primers and probes were from Assays-on-Demand (Applied Biosystems, Foster City, Calif.). cDNA was synthesized from 5 μg of total RNA with Taqman reverse-transcription reagents (Applied Biosystems) and amplified in triplicate at 50° C. for 2 minutes and 95° C. for 10 minutes, followed by 40 cycles of 95° C. for 15 seconds and 60° C. for 1 minute. Reactions without template and/or enzyme were used as negative controls. 18S ribosomal RNA served as an internal control. A standard curve derived from embryonic mouse RNA was plotted for each target gene by linear regression using SPSS software (v. 11.0, Applied Biosystems). RNA quantity was expressed relative to the corresponding 18S control. Fold differences were calculated by dividing the experimental results by the pooled normal results and were plotted on a log 10 scale.

[10] = tested on: gene expression in lymphedemous tissue; test: Paired whole genome transcriptional profiling of human lymphedema (Agilent human array); format: in vivo; details: of the 8431 genes altered in lymphedema versus normal tissue
Procedure: Paired whole genome transcriptional profiling was performed using the Agilent human array (n=30). Expression profiles of untreated and post-treated lymphedemous tissue were compared to the normal cutaneous RNA from the same subject.

[11] = tested on: CD11B+ cells and CD4+ helper T cells in affected tissue; test: Human study: immunohistochemistry of CD11b+ and CD4+ cell infiltrates in biopsies; format: in vivo; details: 4th clinical follow up visit
Procedure: FIG. 26. […] 3 samples from each patient were analyzed by paired analysis: NL (biopsy from an unaffected limb), 1-LY (biopsy from affected limb), and 4-LY (4th clinical follow up visit).
FIG. 29. Quantification of CD4+ helper T cell involvement in lymphedema pathology. 3 samples from each patient were analyzed by paired analysis: NL (biopsy from an unaffected limb), 1-LY (biopsy from affected limb), and 4-LY (4th clinical follow up visit).
To determine the cellular basis for the lymphedema pathology, lymphedemous tissue was analyzed for the aberrant presence of immune cells.

[12] = postoperative day 7, listed as NSAID
[13] = day 11, lymphedema mice, listed as NSAID
[14] = lymphedema mice, listed as NSAID

CC(C(=O)O)c1cccc(C(=O)c2ccccc2)c1 (stereo not shown) [ketoprofen]
permeation of topically administered drug into skin layers [1]: permeates into the deepest layers of the skin
serum CD30 amounts, average decrease after treatment [2]: 13%
fluid lost from the affected limb, unilateral lymphedema (average) [3]: 354 milliliters
fluid lost from one affected limb, bilateral lymphedema (average) ([3]; total volume lost divided by 2): 533 milliliters
MCP-1 tissue levels (protein) ([4]; postoperative day 7): further increased
MCP-3 tissue levels (protein) [4, 12]: significantly reduced; also recorded: inhibited
macrophage inflammatory protein 1a (MIP1a) tissue levels [4, 12]: inhibited
TNF-α tissue levels (protein) ([4]; postoperative day 7, median fluorescence intensity): significantly higher
epidermal thickness (ET) compared to untreated LY mice ([5]; FIG. 14B): significantly reduced
epidermal thickness decreased, compared to untreated lymphedema mice ([5]; day 11): 47.0±5.1%
histological changes in mice with lymphedema ([5]; day 11): substantial normalization from the untreated histology
histological changes in mice with lymphedema ([5]; day 11, listed as NSAID): normalization of histological changes; also recorded: normalizes these pathological findings
Log Kow [6]: 3.00
participants who describe the affected limb as normal in size [7]: 2%
participants who described relief from pain [7]: 7%
participants who discontinued chronic use of compression garments [7]: 9%
participants who elected to continue off-label treatment [7]: 100%
participants who noted that the affected limb feels lighter [7]: 7%
participants who noted that the compression garment is loose [7]: 2%
tissue architecture, protein deposition and fibrosis in cutaneous biopsies [8]: reversal of disease-associated protein deposition and fibrosis; also recorded: restoration in the tissue architecture; also recorded: abrogates the inflammation that leads to a fibrotic response in the skin
Prox1 expression ([9]; day 11, lymphedema mice): significant, parallel up-regulation
TNF-α expression (mRNA) ([9]; day 11, lymphedema mice): further increased
MCP-1 expression (mRNA) [9, 13]: significantly induced
Prox1 expression [9, 13]: significantly induced
TNF-α expression (mRNA) [9, 13]: significantly induced
VEGF-C expression (mRNA) ([9]; lymphedema mice): significant upregulation
VEGFR-3 expression ([9]; lymphedema mice): significantly upregulated
VEGF-C expression (mRNA) [9, 14]: significant, parallel up-regulation; also recorded: significantly induced
VEGFR-3 expression [9, 14]: significant, parallel up-regulation; also recorded: significantly induced
VEGF-D expression (mRNA) ([9]; lymphedema mice, vs vehicle): significant upregulation
fraction of altered genes displaying directional normalization after treatment [10]: 72%
number of genes displaying directional normalization after treatment [10]: 6050
CD4+ cells in affected tissue after treatment [11]: absent
CD11B+ cells in affected tissue after treatment [11]: absent; also recorded: returns CD11b counts to normal
